The record followed here is US6355692B2, “Method of inhibiting formation of infectious microorganisms” (Northeastern Ohio Universities College of Medicine, priority 1998, dated 2002).

Converted amounts (≈) assume the structure as drawn. Some results are limits rather than exact numbers.

One data set deals with Escherichia coli. Description: Inhibitory concentration on bacteria and yeast in vitro. It is filed as cell-based.
Another data set concerns Pseudomonas aeruginosa. The description is as above. It is filed as cell-based.
The subject of data set [1] is Group A Beta Streptococcus. Description: Inhibitory concentration on bacteria and yeast in vitro. Format: cell-based.
For another data set, the system named is pseudorabies virus. Description: microbe, parasite or virus in culture. It is filed as cell-based.
The test system of a further data set is Staphylococcus aureus. Put plainly: Inhibitory concentration on bacteria and yeast in vitro. It is filed as cell-based.
The next data set deals with Neisseria gonorrhea. Put plainly: Growth inhibition on chocolate agar containing resveratrol. Format: cell-based. As for the experimental part: Stock solutions of the resveratrol, obtained from Sigma Chemical Co, St. Louis, Mo. were prepared in 100% ethanol. Different quantities of the stock solution where added to melted chocolate agar which was then poured into a petri dish and allowed to solidify. […] The final concentration of ethanol in the agar was 0.5%. Control plates containing chocolate agar and ethanol at a final concentration of 0.5% were also prepared. Neisseria gonorrhea was obtained from patients diagnosed with gonorrhea. The authenticity of the bacterium was confirmed utilizing standard microbiological techniques of identification. Cultures of the bacterial isolate were inoculated onto fresh plates and then 24 hours later, a suspension was made from isolated colonies. […] Thereafter, the samples were incubated at 37° C. with or without 5% CO2. All samples were visually examined for growth of the bacterium 24 hours later to determine the concentration of resveratol that inhibits growth by 50% (MIC50) as well as the concentration which inhibits any visible growth (MIC100)

A further data set concerns Neisseria meningitidis. The data set is described as above. It is filed as cell-based. Here is the method: Stock solutions of the resveratrol, obtained from Sigma Chemical Co, St. Louis, Mo. were prepared in 100% ethanol. Different quantities of the stock solution where added to melted chocolate agar which was then poured into a petri dish and allowed to solidify. […] The final concentration of ethanol in the agar was 0.5%. Control plates containing chocolate agar and ethanol at a final concentration of 0.5% were also prepared. A culture of Neisseria […] obtained from the American Type Culture Collection. Authenticity of the bacterium was confirmed utilizing standard microbiological techniques of identification. Cultures of the bacterial isolate were inoculated onto fresh plates and then 24 hours later, a suspension was made from isolated colonies. […] Thereafter, the samples were incubated at 37° C. with or without 5% CO2. All samples were visually examined for growth of the bacterium 24 hours later to determine the resveratrol concentration that inhibits growth by 50% (MIC50) and the resveratrol concentration which inhibits any visible growth (MIC100)

The test system of another data set is Candida albicans. Put plainly: Inhibitory concentration on bacteria and yeast in vitro. It is filed as cell-based.
[2] abbreviates: complete inhibition of bacterial growth after 24 hours.
Where [3] appears, read: concentrations ranging from 1 μg/ml to 200 μg/ml of solution.

As for `Oc1ccc(/C=C/c2cc(O)cc(O)c2)cc1` [resveratrol, 3,5,4′-trihdyroxystilbene], the IC50 (usually the midpoint of a concentration-inhibition curve) is above 200 µg/mL with Escherichia coli (Escherichia coli, 50% reduction in bacterial growth after 24 hours); above 200 µg/mL in the data set on Pseudomonas aeruginosa (Pseudomonas aeruginosa, 50% reduction in bacterial growth after 24 hours); above 200 µg/mL in data set [1] (Streptococcus, 50% reduction in bacterial growth after 24 hours); above 200 µg/mL in the data set on Staphylococcus aureus (Staphylococcus aureus, 50% reduction in bacterial growth after 24 hours); 25 µg/mL (≈ 110 µM) in the data set with Neisseria gonorrhea (Neisseria, 50% reduction in bacterial growth after 24 hours); 100 µg/mL (≈ 438 µM) in the data set on Neisseria meningitidis (Neisseria meningitidis, 50% reduction in bacterial growth after 24 hours). This molecule also came in with an IC50 in the data set with Candida albicans (Candida albicans, 50% reduction in bacterial growth after 24 hours) above 200 µg/mL. The IC100 in the data set on Escherichia coli (setting [2]) is above 200 µg/mL; in the data set with Pseudomonas aeruginosa (setting [2]), above 200 µg/mL; in data set [1] (setting [2]), above 200 µg/mL; in the data set with Staphylococcus aureus (setting [2]) it was above 200 µg/mL; with Neisseria gonorrhea (setting [2]) it was 75 µg/mL; with Neisseria meningitidis (setting [2]) it was 125 µg/mL. In addition, the IC100 with Candida albicans (setting [2]) is above 200 µg/mL. The growth inhibition entry (in the data set with Escherichia coli (setting [3]); in the data set on Pseudomonas aeruginosa (setting [3]); in [1] (setting [3]); in the data set on Staphylococcus aureus (setting [3]); with Candida albicans (setting [3])) was “does not inhibit the growth” each time. Moreover, in the data set on cultured cells, the “toxicity to cultured cells” value was “non-toxic to cells”. For the same molecule, the “reversibility of effect on pseudorabies virus replication” value in the data set on pseudorabies virus is “reversible”. The inhibition (as a rule, the share of the control response that was lost under treatment) at 50 µg/mL in the data set with pseudorabies virus (Suid alphaherpesvirus 1, Vero, 24 h, read-out: inhibition of formation of infectious virus particles) is above 99%. Besides, the “infectious pseudorabies virus particles in cultures” value with pseudorabies virus (continuously incubated with 50 μg/ml resveratrol, 72 hours) is listed as “virtually undetectable”.
